The conditions of series [1]: human and rodent liver microsomes and human liver primary hepatocytes. Background: Liver microsomes are vesicles of endoplasmic reticulum, rich in cytochrome P450 enzymes.
The test system of series [2] is replicating H37Rv. The series is described as follows: microbe, parasite or virus in culture. It is filed as cell-based, Mycobacterium tuberculosis.
Series [3] deals with Mtb SRMV2.6 attB::guaB2-guaB3. Put plainly: MIC by AlamarBlue assay. The format is cell-based. The note with it: Mycobacterium tuberculosis. For orientation: Alamar Blue is a resazurin reagent that responds to reducing activity.
Series [4] has as its target human ERG channel (Homo sapiens, UniProt Q12809). Put plainly: cell-based.
For series [5], the system named is Mtb SRMV2.6. Put plainly: microbe, parasite or virus in culture. It is filed as cell-based, Mycobacterium tuberculosis.
Series [6] has as its system Caco-2/TC-7 cell monolayers. The note with it: threshold value 20 × 10^–7 cm s^–1.
For series [7], the system named is Corynebacterium glutamicum. Particulars: phenotypic screen; cited from earlier work.
Series [8] has as its system Mtb SRMV2.6 attB::guaB2. Put plainly: MIC by AlamarBlue assay. The format is cell-based. The note with it: Mycobacterium tuberculosis.
Series [9] has as its system Mtb-infected MRC-5 fibroblasts. It is filed as cell-based, human. Particulars: concentration up to 50 μM.
The test system of series [10] is Mtb SRMV2.10. Put plainly: microbe, parasite or virus in culture. The format is cell-based. Particulars: Mycobacterium tuberculosis.
Series [11] concerns Mtb H37Rv. The series is described as follows: Checkerboard assay, purine supplementation versus VCC234718. The format is cell-based, Mycobacterium tuberculosis. Particulars: for MIC90: Mycobacterium tuberculosis, H37RV.
Series [12] relates to PDIM-deficient H37Rv strain (H37RvJO). Put plainly: MIC by AlamarBlue assay. It is filed as cell-based. Particulars: Mycobacterium tuberculosis.
The test system of series [13] is nonreplicating, streptomycin-starved Mtb 18b or 18b-Lux. Put plainly: Activity against nonreplicating bacilli. The note with it: concentrations up to 20 μM. The format is cell-based, Mycobacterium tuberculosis.
The subject of series [14] is Mtb H37Rv attB::guaB2-guaB3. Put plainly: MIC by AlamarBlue assay. The format is cell-based. The note with it: Mycobacterium tuberculosis.
Series [15] addresses Mtb GuaB2 (Mycobacterium tuberculosis, UniProt P9WKI7). Put plainly: biochemical.
Series [16] has as its system Mtb H37Rv (H37RvMA). Put plainly: MIC by broth microdilution, AlamarBlue assay. It is filed as cell-based. The note with it: Mycobacterium tuberculosis. (In general: In broth dilution the organism is exposed to a series of concentrations in liquid medium.)
The test system of series [17] is Mtb H37Rv. The series is described as follows: Time-kill kinetics. The note with it: Mycobacterium tuberculosis, read-out: 99% minimum bactericidal concentration (MBC99). It is filed as cell-based.
Series [18] concerns Mtb-infected activated THP-1 macrophages. The format is cell-based, human.
The test system of series [19] is Mtb H37Rv attB::guaB2. Put plainly: MIC by AlamarBlue assay. The format is cell-based. Particulars: Mycobacterium tuberculosis.
The subject of series [20] is Mtb guaB2-guaB3 Tet-OFF attB::guaB3. Put plainly: microbe, parasite or virus in culture. The format is cell-based, Mycobacterium tuberculosis. The note with it: for effect of guaB2 silencing on susceptibility: data not shown.
For series [21] the following is noted: human primary hepatocytes.
The test system of series [22] is Mtb SRMV2.3. The series is described as follows: microbe, parasite or virus in culture. It is filed as cell-based. The note with it: Mycobacterium tuberculosis.
Series [23] concerns Mtb guaB2-guaB3 Tet-OFF attB::guaB3 and guaB2-guaB3 Tet-OFF. It is filed as cell-based, Mycobacterium tuberculosis.

Values after ≈ are worked out from the molar mass of the structure shown. “Also recorded” adds a separate entry of the source. Bounds are passed on as bounds.

Chain of Mtb GuaB2 (P9WKI7 whole entry, looked up): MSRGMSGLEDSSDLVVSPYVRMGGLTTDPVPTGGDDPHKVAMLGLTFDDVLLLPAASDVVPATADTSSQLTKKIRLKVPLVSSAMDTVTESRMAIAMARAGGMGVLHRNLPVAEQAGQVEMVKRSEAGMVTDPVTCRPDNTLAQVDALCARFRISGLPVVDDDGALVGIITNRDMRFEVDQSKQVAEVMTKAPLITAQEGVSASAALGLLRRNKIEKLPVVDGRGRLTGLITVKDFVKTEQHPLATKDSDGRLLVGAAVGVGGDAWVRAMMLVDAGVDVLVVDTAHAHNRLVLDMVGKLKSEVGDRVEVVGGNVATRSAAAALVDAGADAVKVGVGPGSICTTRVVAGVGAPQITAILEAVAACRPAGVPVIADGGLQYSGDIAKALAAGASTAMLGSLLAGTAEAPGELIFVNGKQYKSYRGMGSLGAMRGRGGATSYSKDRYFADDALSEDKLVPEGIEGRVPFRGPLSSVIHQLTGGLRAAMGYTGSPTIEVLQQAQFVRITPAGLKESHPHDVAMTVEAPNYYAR
Chain of human ERG channel (Q12809 whole entry): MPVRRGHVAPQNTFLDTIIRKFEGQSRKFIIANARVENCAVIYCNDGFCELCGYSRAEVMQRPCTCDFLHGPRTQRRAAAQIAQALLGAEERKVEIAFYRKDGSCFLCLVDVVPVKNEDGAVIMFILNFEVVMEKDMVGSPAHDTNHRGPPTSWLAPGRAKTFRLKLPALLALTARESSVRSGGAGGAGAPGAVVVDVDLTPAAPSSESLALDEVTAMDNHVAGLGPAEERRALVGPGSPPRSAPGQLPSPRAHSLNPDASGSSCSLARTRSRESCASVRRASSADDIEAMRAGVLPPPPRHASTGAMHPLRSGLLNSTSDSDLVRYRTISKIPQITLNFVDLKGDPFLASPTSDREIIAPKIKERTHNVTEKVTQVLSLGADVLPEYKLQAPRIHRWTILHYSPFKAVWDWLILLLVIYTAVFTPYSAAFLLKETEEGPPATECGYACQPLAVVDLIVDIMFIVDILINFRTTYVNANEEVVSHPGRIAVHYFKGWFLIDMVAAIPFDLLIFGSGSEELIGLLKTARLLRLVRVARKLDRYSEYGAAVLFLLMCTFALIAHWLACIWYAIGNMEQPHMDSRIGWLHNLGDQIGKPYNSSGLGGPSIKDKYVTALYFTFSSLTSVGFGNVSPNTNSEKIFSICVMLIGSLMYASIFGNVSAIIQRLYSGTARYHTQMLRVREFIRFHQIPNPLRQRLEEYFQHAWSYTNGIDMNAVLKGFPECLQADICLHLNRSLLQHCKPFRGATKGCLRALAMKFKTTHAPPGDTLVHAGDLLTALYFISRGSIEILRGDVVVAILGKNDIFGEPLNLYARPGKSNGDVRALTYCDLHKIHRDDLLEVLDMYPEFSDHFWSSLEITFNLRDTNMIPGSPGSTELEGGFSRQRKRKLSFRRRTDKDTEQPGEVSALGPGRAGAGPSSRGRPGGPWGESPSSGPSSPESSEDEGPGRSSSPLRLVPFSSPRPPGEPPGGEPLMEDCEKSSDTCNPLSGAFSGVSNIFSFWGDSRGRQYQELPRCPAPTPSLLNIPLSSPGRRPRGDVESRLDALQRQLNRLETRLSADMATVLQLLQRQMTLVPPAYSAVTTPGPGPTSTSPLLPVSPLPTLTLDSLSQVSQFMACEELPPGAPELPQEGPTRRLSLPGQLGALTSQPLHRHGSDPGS

Regarding `O=C(C1CCCCC1)N1CCN(S(=O)(=O)c2cccc3cnccc23)CC1` [VCC234718, N-(5-Isoquinolinylsulfonyl)-N’-cyclohexanoyl-piperazine], in series [1], the “metabolism (in words)” value is recorded as “highly metabolized”. Besides, the inhibition (in general, the change of the read-out against control, counted positive when it falls) at 20 µM in [2] (Mycobacterium tuberculosis, H37RV, 168 h, read-out: percentage inhibition of resazurin reduction) was greater than 80%. In addition, the MIC90 in series [2] (Mycobacterium tuberculosis, H37RV, read-out: 90% minimum inhibitory concentration (MIC90)) is 5 µM (≈ 1.94 µg/mL); in series [3], greater than 200 µM; in [5] (Mycobacterium tuberculosis, SRMV2.6), greater than 100 µM; in series [5] (strain SRMV2.6) it was greater than 100 µM; in [8], greater than 200 µM; in [10], 8 µM (≈ 3.1 µg/mL). The MIC90 in series [11] (checkerboard, without guanine) was 2 µM; in series [11] (guanine concentration of 200 μM), greater than 64 µM; in series [12], 2 µM (≈ 0.775 µg/mL); in series [14], 4 to 8 µM (≈ 1.55 to 3.1 µg/mL); in [16] it was 2 µM (≈ 0.775 µg/mL); in series [19], 4 to 8 µM (≈ 1.55 to 3.1 µg/mL). For the same compound, the MIC90 in [20] (Mycobacterium tuberculosis, checkerboard, before guaB2 silencing (lowest ATc)) came to 2.5 µM; in [22], 16 µM (≈ 6.2 µg/mL). Also, the “inhibition of H37Rv growth” value in series [2] (at 20 μM) is reported as “totally inhibit”. Besides, the IC50 (in general, the midpoint of a concentration-inhibition curve) in series [4] worked out at 13700 nM. For the same compound, the “permeability (in words)” value in series [6] was “very high”. The whole-cell activity result in [7] is on record as “not against Corynebacterium glutamicum”. For the same compound, the “anticytolytic activity in MRC-5 fibroblasts” value in series [9] was “completely inactive”. Besides, the “inhibition of nonreplicating Mtb” value in [13] was “not significantly inhibiting”. Moreover, the Ki (usually the dissociation constant of the complex between target and ligand, obtained from inhibition or displacement) in [15] (Mtb GuaB2) stood at 100 nM; in [15] (Mtb GuaB2, IMP as the substrate), 120 nM. In addition, the mechanism of inhibition result in series [15] (with respect to IMP and NAD+) is reported as “uncompetitive”. Also, the MBC in series [17] lay in the range of 16 to 32 µM (≈ 6.2 to 12.4 µg/mL). The “concentrations displaying anticytolytic activity in activated THP-1 macrophages” value in series [18] is greater than 1 µM. Besides, the “contribution of CYP3A4 to metabolism (in words)” value in series [21] is recorded as “no contribution”.

With `Nc1ncnc2[nH]cnc12` [adenine], in series [11], the “effect of supplementation on VCC234718 toxicity” value (from here on “effect of supplementation”) was “neither adenine nor guanosine supplementation was able to rescue”.

Take `CC[C@@H](CO)NCCN[C@@H](CC)CO` [ethambutol]: in [20], the “effect of guaB2 silencing on susceptibility” value (from here on “effect of guaB2 silencing”) was “no effect”.

As for `Nc1nc2nc[nH]c2c(=O)[nH]1` [guanine], the “guanine concentration giving essentially complete rescue from ATc toxicity” value in series [23] is no less than 125 µM. Further, the “rescue of Mtb from VCC234718 toxicity” value in [11] (VCC234718 at 128 μM) was “unable to rescue”.

For `Nc1nc2c(ncn2[C@@H]2O[C@H](CO)[C@@H](O)[C@H]2O)c(=O)[nH]1` [guanosine], the “effect of supplementation” value in [11] is reported as “neither adenine nor guanosine supplementation was able to rescue; also recorded: failed to rescue”.

For `NNC(=O)c1ccncc1` [isoniazid], the “effect of guaB2 silencing” value in [20] is on record as “no effect”.

For `C[C@H]1COc2c(N3CCN(C)CC3)c(F)cc3c(=O)c(C(=O)O)cn1c23` [levofloxacin], in [20], the “effect of guaB2 silencing” value is recorded as “no effect”.

For `CO[C@H]1/C=C/O[C@@]2(C)Oc3c(C)c(O)c4c(O)c(c(/C=N/N5CCN(C)CC5)c(O)c4c3C2=O)NC(=O)/C(C)=C\C=C\[C@H](C)[C@H](O)[C@@H](C)[C@@H](O)[C@@H](C)[C@H](OC(C)=O)[C@@H]1C` [rifampicin], the “effect of guaB2 silencing” value in series [20] is given as “no effect”.

Turning to `[H]/N=C(/N)N[C@H]1[C@H](O)[C@@H](O)[C@H](O[C@@H]2O[C@@H](C)[C@](O)(C=O)[C@H]2O[C@@H]2O[C@@H](CO)[C@H](O)[C@@H](O)[C@@H]2NC)[C@@H](N/C(N)=N\[H])[C@@H]1O` [streptomycin], in [20], the “effect of guaB2 silencing” value was “no effect”.

`O=c1[nH]c(=O)c2nc[nH]c2[nH]1` [xanthine]: the “effect of supplementation” value in series [11] is “no effect”.

These data come from paper PMC5241705 (ACS Infectious Diseases, 2016).
